{
  "source": "patent US11523610B2",
  "about": "“Regulating plant growth using a diapocarotenoid” (King Abdullah University of Science and Technology, priority 2018, dated 2022)",
  "key": {"[1]": {"test_system": "Arabidopsis seedlings (lateral roots)", "experiment": "Lateral root emergence and lateral root capacity", "format": "in vivo", "description": "(§1) ANRs were counted in seedlings vertically grown on half strength MS (with 0.5% sucrose +1% agar, 0.5 g/L MES, pH 5.7) media 8 days post-stratification (dps) using a dissection microscope. To investigate ANR formation after root apical meristems (RAM) excision (ANR-RE), RAM of seedlings were excised using sterile scalpels at 5 dps and then grown for another 3 days prior to counting the number of emerged ANRs. RAM of seedlings were excised at 8 dps and then grown for another 3 days prior to counting the number of emerged LRs. For determining the effect of anchorene on lateral roots, the number of emerged lateral roots were counted using a dissection microscope at 8 dps. For primary root length measurements, seedlings were measured using the publicly available ImageJ software (downloaded from rsbweb.nih.gov/ij/) after taking digital photographs. For adventitious root assay, the number of emerged adventitious roots per plant were counted after 5 days of treatment on plates with or without anchorene."}, "PIN3": {"test_system": "PIN3", "experiment": "PIN3-GFP fluorescence in ANR primordia (pPIN3::PIN3-GFP marker line)", "format": "in vivo, Arabidopsis", "conditions": "20 μM anchorene", "method": "For fluorescence intensity quantification of pDR5Rev::GFP and pPIN3::PIN3-GFP marker lines, ImageJ software (rsbweb.nih.gov/ij/) was used after taking confocal microscopy photos. All calculations are background subtracted.\nTo determine if the effect of anchorene on ANR development is caused by changes in auxin distribution, the activity of anchorene in the presence of NPA was evaluated. […] Vertical grown 5 DAG seedlings on half MSO with indicated treatments were analyzed. The orientation of root growth was measured and then was assigned to one of twelve 30° sectors. […] The auxin efflux carrier PIN3 plays an important role in LR initiation and emergence. Therefore, the effect of anchorene on PIN3 using the pPIN3::PIN3-GFP marker line was examined."}, "[2]": {"test_system": "Arabidopsis collet transcriptome", "experiment": "RNA-Seq of collet transcriptome", "format": "in vivo", "conditions": "collets", "method": "For anchorene and NPA treatment, Col-0 seedlings were vertically grown on half MSO (with 0.5% sucrose+1% agar, 0.5 g/L MES, pH 5.7) plates supplemented with 20 μM anchorene or 1 μM NPA for 5 days. RAM excision treatment was applied by excising the RAM from 4.5-day old Col-0 seedlings, and then tissue was collected 12 hours after excision (5 DAG). About 2 mm of tissue at the collet site (see FIG. 11I) was collected at 5 DAG for all chemicals and physical treatment. Tissue from approximately 50 seedlings were used for each sample. Total RNA was extracted by Direct-zolTM RNA MiniPrep Plus (200 Preps) w/Zymo-Spin™ (ZYMO research). 100 ng total RNA were used for RNA Hi-seq 4000 (ILLUMINA). Each treatment includes three independent replicates.\nPrior to the analysis of RNA-Seq data, the adaptor sequences and low-quality ends of sequenced reads were trimmed using Trimmomatic v0.32 and quality-checked using FastQC v0.11 (www.bioinformatics.babraham.ac.uk/projects/fastqc). To quantify the expression level of genes, the remaining reads were pseudo-aligned to the publicly available TAIR10 A. thaliana transcriptome (release 34) using kallisto v0.43.0. The estimated read counts and calculated transcripts per million (TPM) were subsequently passed to sleuth v0.28.1 for differential expression analysis. […] Gene ontology and KEGG pathway enrichment analyses were conducted using clusterProfiler and Pathview. RNA-Seq data can be accessed at NCBI via BioProject ID PRJNA489360."}, "[3]": {"test_system": "Arabidopsis seedlings (anchor roots)", "experiment": "Anchor root (ANR) emergence/formation in seedlings without RAM excision", "format": "in vivo", "conditions": "for seedlings forming ANRs: no RAM excision, 8 DAG", "method": "Sterilized Col-0 and mutants seeds were kept at 4° C. in darkness for 3 days to stimulate seed germination, and then sown on half strength MSO plates (with 0.5% sucrose +1% agar, 0.5g/L MES, pH 5.7) supplemented with the indicated chemicals as described below or in the Figures. Plates were vertically grown in PERCIVAL® growth chambers under long day (16 h light/8 h dark, 22° C., 60% relative humidity, light density: 4000 LUX) LED white light [HYPERIKON® 16 W LED Light Bulb A21, 16 W (100 W Equivalent), CRI92, 1620 Lumens, 4000K (Daylight Glow)] conditions. Light fluorescence rates were measured using a digital LUX meter (PEAKTECH® 5025).\nas §1\nPrior to the anchor root (ANR) measurements, seeds from 10 ecotypes (Po-0, Is-0, Wu-0, Col-0, Cvi-0, Hi-0, Ove-0, Sav-0, Ler and Kin-0) were harvested from plants grown in long-day photoperiod conditions (16h light/8 h darkness, 22° C., 60% humidity). Seeds of all 10 ecotypes were surfaced sterilized and incubated in sterile water at 4° C. for 8 days, for uniform germination. Natural ANR emergence and ANRC was measured as described above (Anchor root assays) for each ecotype. 20 μM anchorene was used to test the responses of the Po-0 and Is-0 ecotypes to anchorene.\nExcision of the root apical meristems (RAM) triggers ANR formation (FIGS. 3C-D). […] About 9% of control Col-0 seedlings developed ANRs under normal conditions, while approximately 50% formed ANRs upon RAM excision (FIGS. 4B-C). […] Higher anchorene concentrations (10 and 20 μM) enhanced this ratio to 97% and 100%, respectively (FIGS. 4B-C). There was also an increase in the number of seedlings that developed two ANRs from 0% in the untreated control to approximately 80% upon application of 20 μM anchorene (FIGS. 4B-C). Using a wide range of concentrations, a dose-response curve was established in the presence and absence of RAM excision. […] Thus, the promotion of ANRs is not caused by inhibiting primary root growth."}, "pDR5::LUC seedlings": {"test_system": "pDR5::LUC seedlings", "experiment": "Luciferase assay in pDR5::LUC auxin marker line", "format": "in vivo, Arabidopsis", "conditions": "1 μM NF, 20 μM anchorene", "method": "Luciferase activity was assayed as previously described. Briefly, 1 mL of 5 mM Potassium Luciferin (Gold Biotechnology®) dissolved in water was directly applied to pDR5:LUC seedlings grown vertically on treated half strength MS plates. The luciferin solution was allowed to dry for 5-10 minutes in the dark, at room temperature. Seedlings were then imaged using a Lumazone™ CA automated Chemiluminescence system. Seven minute exposure times were used.\nA pDR5::LUC line, which marks LR prebranch sites, was used to track ANR development. […] ANR primordia initiation was observed as early as 3 dps, in anchorene treated pDR5::LUC and 158 pDR5rev::GFP seedling (FIGS. 5A-C)."}},
  "note": "“Also recorded” adds a separate entry of the source.",
  "data": [
    {"smiles": "C\\C(C=O)=C/C=C/C=C(\\C)C=O", "note": "[anchorene, 12,12′-diapocarotene-12,12′-dial]", "values": [
      {"measurement": "lateral root emergence", "setting": "[1]; 5 and 10 μM anchorene, 8 dps", "result": "no effect; also recorded: did not affect"},
      {"measurement": "LR capacity in untreated seedlings", "setting": "[1]; LR No. after RAM excision, 20 μM anchorene", "result": "inhibits LR capacity"},
      {"measurement": "LR formation (LR capacity) after D15 treatment", "setting": "[1]; LR No. after RAM excision, 20 μM anchorene and 100 μl D15", "result": "no significant effect"},
      {"measurement": "LR length", "setting": "[1]; anchorene application (FIGS. 3E-F)", "result": "did not affect"},
      {"measurement": "PIN3 levels (PIN3-GFP fluorescent intensity in ANR primordia)", "setting": "PIN3", "result": "significantly increased"},
      {"measurement": "genes with opposite effects of RAM excision and anchorene treatment", "setting": "[2]; 20 μM anchorene", "result": 36, "unit": "genes"},
      {"measurement": "genes with similar response to RAM excision and anchorene treatment", "setting": "[2]; 20 μM anchorene", "result": 1459, "unit": "genes"},
      {"measurement": "overlapping genes on which NPA and anchorene exert the opposite effect", "setting": "[2]; 20 μM anchorene, 1 μM NPA", "result": "2791 (83%) genes"},
      {"measurement": "overlapping genes whose expression level is affected by NPA and anchorene", "setting": "[2]; 20 μM anchorene, 1 μM NPA, 5 days", "result": 3355, "unit": "genes"},
      {"measurement": "effect on auxin biosynthesis genes", "setting": "[2]; anchorene application", "result": "induction of many auxin biosynthesis genes"},
      {"measurement": "seedlings forming ANRs", "setting": "[3]; 5 μM, control about 9%", "result": 55, "unit": "%"},
      {"measurement": "seedlings forming ANRs", "setting": "[3]; 10 μM", "result": 97, "unit": "%"},
      {"measurement": "seedlings forming ANRs", "setting": "[3]; 20 μM", "result": 100, "unit": "%"},
      {"measurement": "seedlings that developed two ANRs", "setting": "[3]; 20 μM, untreated control 0%", "result": "approximately 80%"},
      {"measurement": "ANR emergence in different Arabidopsis ecotypes", "setting": "[3]; Col-0, Is-0 and Po-0, 20 μM anchorene", "result": "promotes ANR emergence"},
      {"measurement": "ANR formation", "setting": "[3]; screen at 5 or 25 μM", "result": "promotion of ANR formation"},
      {"measurement": "dose-response of ANR formation", "setting": "[3]; wide range of concentrations, in presence and absence of RAM excision (FIG. 3J)", "result": "dose dependent"},
      {"measurement": "LUC signal in the collet", "setting": "pDR5::LUC seedlings", "result": "intensified the LUC signal"}
    ]}
  ]
}
